The values below come from US7960393B2, “Pyrimidine derivatives useful for the treatment of diseases mediated by CRTH2” (Actimis Pharmaceuticals, Inc., priority 2002, dated 2011).

The target of the test is T1, human CRTH2 (Homo sapiens, UniProt Q9Y5Y4).
T1 construct: expressed in transfected cells; host or cells: L1.2 cells, pEAK expression vector, puromycin-selected
T1 sequence (Q9Y5Y4 1-395): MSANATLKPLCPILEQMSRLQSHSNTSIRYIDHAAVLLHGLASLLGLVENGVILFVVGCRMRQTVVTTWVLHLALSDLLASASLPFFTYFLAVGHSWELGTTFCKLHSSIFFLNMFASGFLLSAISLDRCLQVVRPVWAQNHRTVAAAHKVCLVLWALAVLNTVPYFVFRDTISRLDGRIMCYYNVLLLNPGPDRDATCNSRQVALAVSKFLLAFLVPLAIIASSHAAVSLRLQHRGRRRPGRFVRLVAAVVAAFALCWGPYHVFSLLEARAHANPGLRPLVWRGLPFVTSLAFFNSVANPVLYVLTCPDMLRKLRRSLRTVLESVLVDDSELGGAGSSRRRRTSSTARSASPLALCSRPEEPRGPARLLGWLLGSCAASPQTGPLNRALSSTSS
Kind of test: Human CRTH2 receptor binding assay (Assay 2). Particulars: binding to puromycin-resistant human CRTH2 L1.2 transfectants. The method, then:
Human CRTH2 cDNA was amplified from human eosinophil cDNA with gene specific primers containing restriction sites for cloning into pEAK vector (Edge Bio Systems). The human CRTH2 cDNA was cloned into the mammalian expression vector pEAK. This expression plasmid (40 μg) was transfected into L1.2 cells, at a cell density of 1×10^7 cells/500 μl, by using electroporation apparatus (Gene Pulser II, BioRad) at 250V/1,000 μF. One day after the transfection, puromycin (1 μg/ml, Sigma) was added into the cell culture plates. Two weeks after the transfection, grown cells were picked up for further growth.
[Human CRTH2 Receptor Binding Assay] (Assay 2)
CRTH2 transfectants were washed once with PBS and resuspended in binding buffer (50 mM Tris-HCl, pH7.4, 40 mM MgCl2, 0.1% BSA, 0.1% NaN3). 100 μl of cell suspension (2×10^5 cells), [^3H]-labeled PGD2, and various concentrations of test compound were then mixed in a 96-well U-bottom polypropylene plate and incubated for […] at room temperature to allow binding to occur. […] Scintillant was added to the filtration plate, and radioactivity remaining on the filter was measured by TopCount (Packard), a scintillation counter. Non-specific binding was determined by incubating the cell suspension and [^3H]-labeled PGD2 in the presence of 1 μM of unlabeled PGD2.

The Kd is the equilibrium constant for the complex coming apart. For `CCCCC[C@H](O)/C=C/[C@H]1C(=O)C[C@H](O)[C@@H]1C/C=C\CCCC(=O)O` [[^3H]-labeled PGD2], the Kd was 6.3 nM.
